According to publication PMC9861386, “N-Heterocyclic Carbene-Iridium Complexes as Photosensitizers for In Vitro Photodynamic Therapy to Trigger Non-Apoptotic Cell Death in Cancer Cells” (Molecules, 2023):
Where two headings read alike, the source gives them in different places.

How the values were obtained:
MC3T3 osteoblasts = assay: MTT cell viability, 72 h, dark or 458 nm irradiation; format: cell-based, murine
Description: (§1) For all biology experiments, the compounds were solubilized in DMSO to reach a final fixed concentration equal to 0.1% v/v to avoid cytotoxicity caused by DMSO [89]. The results are normalized to controls (0.1% v/v DMSO). Depending on the cell type, approximatively 1000 to 10,000 cells/cm^2 were seeded in 48-well plates for MTT, ATP and GSH assays and 60 mm Petri dishes for Western blots. Cells were allowed to attach overnight and then incubated for 4 h with the different complexes (in the dark), then irradiated for 10 min, followed by an incubation in the dark up to 72 h.
(§2) Irradiation was conducted using an in-house device: a series of blue light LEDs selected according to the absorption spectra of the compounds at a 458 nm wavelength with an emitted power of 9.6 watts. The absorbed energy, or irradiance, was measured at 458 nm with a Thorlabs Optical Power Meter PM100A at 5 and 10 cm distance between the cell layer and the light source and expressed as mW/cm^2.
(§3) A tetrazolium-based MTT reagent (3-(4,5-dimethylthiazol-2-yl)-2,5-diphenyltetrazolium bromide) was used to determine cell viability, as previously described. After 72 h of treatment at 37 °C and 5% CO2, cells were incubated with 25 μL MTT solution (5 mg/mL; Sigma-Aldrich) for 4 h. After solubilization with 500 μL of lysis buffer (DMSO), formazan was quantified by spectrophotometry with a microplate reader at 570 nm absorbance (ClarioSTAR, BMG LabTech, Champigny-sur-Marne, France). GI50 values corresponding to the concentration that caused 50% inhibition of cell proliferation were calculated from dose–response curves obtained by nonlinear regression analysis. All results were calculated from data obtained in at least three independent experiments.

NIH-3T3 fibroblasts = assay: as above; format: cell-based, murine; conditions: for GI50: 72 h, MTT; for PI NIH-3T3: GI50 non-irradiated / GI50 irradiated
Description: as §1, §2, §3

A549 lung cancer cells = assay: as above; format: cell-based, human; conditions: for GI50: 72 h, MTT; for PI A549: GI50 non-irradiated / GI50 irradiated; for SI vs MC3T3, A549 Blue / SI vs NIH, A549 Blue: blue light; for SI vs MC3T3, A549 Blue / SI vs MC3T3, A549 Dark: GI50 MC3T3 / GI50 A549; for SI vs NIH, A549 Blue / SI vs NIH, A549 Dark: GI50 NIH-3T3 / GI50 A549
Description: as §1, §2, §3

HeLa cervix cancer cells = assay: as above; format: cell-based, human; conditions: for GI50: 72 h, MTT; for PI HeLa: GI50 non-irradiated / GI50 irradiated; for SI vs MC3T3, HeLa Blue / SI vs NIH, HeLa Blue: blue light; for SI vs MC3T3, HeLa Blue / SI vs MC3T3, HeLa Dark: GI50 MC3T3 / GI50 HeLa; for SI vs NIH, HeLa Blue / SI vs NIH, HeLa Dark: GI50 NIH-3T3 / GI50 HeLa
Description: as §1, §2, §3

[1] = tested on: MCF7/FasR breast cancer cells; assay: as above; format: cell-based, human; conditions: for GI50: 72 h, MTT; for PI MCF7: GI50 non-irradiated / GI50 irradiated; for SI vs MC3T3, MCF7 Blue / SI vs NIH, MCF7 Blue: blue light; for SI vs MC3T3, MCF7 Blue / SI vs MC3T3, MCF7 Dark: GI50 MC3T3 / GI50 MCF7; for SI vs NIH, MCF7 Blue / SI vs NIH, MCF7 Dark: GI50 NIH-3T3 / GI50 MCF7
Description: as §1, §2, §3

[2] = tested on: PC-3 prostate cancer cells; assay: as above; format: cell-based, human; conditions: for GI50: 72 h, MTT; for PI PC-3: GI50 non-irradiated / GI50 irradiated; for SI vs MC3T3, PC-3 Blue / SI vs NIH, PC-3 Blue: blue light; for SI vs MC3T3, PC-3 Blue / SI vs MC3T3, PC-3 Dark: GI50 MC3T3 / GI50 PC-3; for SI vs NIH, PC-3 Blue / SI vs NIH, PC-3 Dark: GI50 NIH-3T3 / GI50 PC-3
Description: as §1, §2, §3

T24 bladder cancer cells = assay: as above; format: cell-based, human; conditions: for GI50: 72 h, MTT; for PI T24: GI50 non-irradiated / GI50 irradiated; for SI vs MC3T3, T24 Blue / SI vs NIH, T24 Blue: blue light; for SI vs MC3T3, T24 Blue / SI vs MC3T3, T24 Dark: GI50 MC3T3 / GI50 T24; for SI vs NIH, T24 Blue / SI vs NIH, T24 Dark: GI50 NIH-3T3 / GI50 T24
Description: as §1, §2, §3

PC-3 = assay: MTT cytotoxicity, 48 h; format: cell-based, human; conditions: for GI50: MTT; for SI (PC-3): NIH3T3 vs PC-3
Summary of the method: (§4)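 Colorimetric MTT test after 48 h compound exposure in human prostate PC-3, human bladder T24 and murine fibroblast NIH-3T3 cells. GI50 is the concentration giving 50% growth inhibition, from three independent experiments; selectivity index uses NIH-3T3 versus each cancer line.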

T24 = assay: MTT cytotoxicity, 48 h; format: cell-based, human; conditions: for GI50: MTT; for SI (T24): NIH3T3 vs T24
Summary of the method: as §4

[3] = 458 nm irradiation 10 min, read-out: GI50 MC3T3 Blue
[4] = dark, read-out: GI50 MC3T3 Dark
[5] = 458 nm irradiation 10 min, read-out: GI50 NIH-3T3 Blue
[6] = dark, read-out: GI50 NIH-3T3 Dark
[7] = 458 nm irradiation 10 min, read-out: GI50 A549 Blue
[8] = 458 nm irradiation 10 min, read-out: GI50 HeLa Blue
[9] = 458 nm irradiation 10 min, read-out: GI50 MCF7 Blue
[10] = 458 nm irradiation 10 min, read-out: GI50 PC-3 Blue
[11] = 458 nm irradiation 10 min, read-out: GI50 T24 Blue

F[P-](F)(F)(F)(F)F.c1ccc(C[n+]2ccn3[c]2[Ir-3]24([c]5ccccc5-c5cccc[n+]52)([c]2ccccc2-c2cccc[n+]24)[c]2n(cc[n+]2Cc2ccccc2)C3)cc1 [Complex 4c]
GI50 (MC3T3 osteoblasts; [3]): 1330 nM
GI50 (MC3T3 osteoblasts; [4]): 1160 nM
GI50 (NIH-3T3 fibroblasts; [5]): 2670 nM
PI NIH-3T3 (NIH-3T3 fibroblasts): 1.0
GI50 (NIH-3T3 fibroblasts; [6]): 2730 nM
GI50 (A549 lung cancer cells; [7]): 171 nM
PI A549 (A549 lung cancer cells): 2.4
SI vs MC3T3, A549 Blue (A549 lung cancer cells): 7.8
SI vs NIH, A549 Blue (A549 lung cancer cells): 15.6
GI50 (A549 lung cancer cells; dark, read-out: GI50 A549 Dark): 407 nM
SI vs MC3T3, A549 Dark (A549 lung cancer cells; dark): 2.9
SI vs NIH, A549 Dark (A549 lung cancer cells; dark): 6.7
GI50 (HeLa cervix cancer cells; [8]): 275 nM
PI HeLa (HeLa cervix cancer cells): 1.8
SI vs MC3T3, HeLa Blue (HeLa cervix cancer cells): 4.8
SI vs NIH, HeLa Blue (HeLa cervix cancer cells): 9.7
GI50 (HeLa cervix cancer cells; dark, read-out: GI50 HeLa Dark): 494 nM
SI vs MC3T3, HeLa Dark (HeLa cervix cancer cells; dark): 2.3
SI vs NIH, HeLa Dark (HeLa cervix cancer cells; dark): 5.5
GI50 [1, 9]: 61 nM
PI MCF7 [1]: 4.1
SI vs MC3T3, MCF7 Blue [1]: 21.8
SI vs NIH, MCF7 Blue [1]: 43.8
GI50 ([1]; dark, read-out: GI50 MCF7 Dark): 248 nM
SI vs MC3T3, MCF7 Dark ([1]; dark): 4.7
SI vs NIH, MCF7 Dark ([1]; dark): 11.0
GI50 [2, 10]: 116 nM
PI PC-3 [2]: 2.9
SI vs MC3T3, PC-3 Blue [2]: 11.5
SI vs NIH, PC-3 Blue [2]: 23.0
GI50 ([2]; dark, read-out: GI50 PC-3 Dark): 336 nM
SI vs MC3T3, PC-3 Dark ([2]; dark): 3.5
SI vs NIH, PC-3 Dark ([2]; dark): 8.1
GI50 (T24 bladder cancer cells; [11]): 91 nM
PI T24 (T24 bladder cancer cells): 3.9
SI vs MC3T3, T24 Blue (T24 bladder cancer cells): 14.6
SI vs NIH, T24 Blue (T24 bladder cancer cells): 29.3
GI50 (T24 bladder cancer cells; dark, read-out: GI50 T24 Dark): 358 nM
SI vs MC3T3, T24 Dark (T24 bladder cancer cells; dark): 3.2
SI vs NIH, T24 Dark (T24 bladder cancer cells; dark): 7.6
GI50 (PC-3): 410 nM
SI (PC-3) (PC-3): 17.3
GI50 (T24): 430 nM
SI (T24) (T24): 16.5

CSc1ccc(-[n+]2ccn3[c]2[Ir-3]24([c]5ccccc5-c5cccc[n+]52)([c]2ccccc2-c2cccc[n+]24)[c]2n(cc[n+]2-c2ccc(SC)cc2)C3)cc1.F[P-](F)(F)(F)(F)F [Complex 4d]
GI50 (MC3T3 osteoblasts; [3]): 1800 nM
GI50 (MC3T3 osteoblasts; [4]): 2080 nM
GI50 (NIH-3T3 fibroblasts; [5]): 2780 nM
PI NIH-3T3 (NIH-3T3 fibroblasts): 0.8
GI50 (NIH-3T3 fibroblasts; [6]): 2330 nM
GI50 (A549 lung cancer cells; [7]): 617 nM
PI A549 (A549 lung cancer cells): 2.4
SI vs MC3T3, A549 Blue (A549 lung cancer cells): 2.9
SI vs NIH, A549 Blue (A549 lung cancer cells): 4.5
GI50 (A549 lung cancer cells; dark, read-out: GI50 A549 Dark): 1510 nM
SI vs MC3T3, A549 Dark (A549 lung cancer cells; dark): 1.4
SI vs NIH, A549 Dark (A549 lung cancer cells; dark): 1.5
GI50 (HeLa cervix cancer cells; [8]): 817 nM
PI HeLa (HeLa cervix cancer cells): 1.9
SI vs MC3T3, HeLa Blue (HeLa cervix cancer cells): 2.2
SI vs NIH, HeLa Blue (HeLa cervix cancer cells): 3.4
GI50 (HeLa cervix cancer cells; dark, read-out: GI50 HeLa Dark): 1540 nM
SI vs MC3T3, HeLa Dark (HeLa cervix cancer cells; dark): 1.4
SI vs NIH, HeLa Dark (HeLa cervix cancer cells; dark): 1.5
GI50 [1, 9]: 117 nM
PI MCF7 [1]: 3.1
SI vs MC3T3, MCF7 Blue [1]: 15.4
SI vs NIH, MCF7 Blue [1]: 23.8
GI50 ([1]; dark, read-out: GI50 MCF7 Dark): 365 nM
SI vs MC3T3, MCF7 Dark ([1]; dark): 5.7
SI vs NIH, MCF7 Dark ([1]; dark): 6.4
GI50 [2, 10]: 157 nM
PI PC-3 [2]: 3.2
SI vs MC3T3, PC-3 Blue [2]: 11.5
SI vs NIH, PC-3 Blue [2]: 17.7
GI50 ([2]; dark, read-out: GI50 PC-3 Dark): 509 nM
SI vs MC3T3, PC-3 Dark ([2]; dark): 4.1
SI vs NIH, PC-3 Dark ([2]; dark): 4.6
GI50 (T24 bladder cancer cells; [11]): 165 nM
PI T24 (T24 bladder cancer cells): 3.0
SI vs MC3T3, T24 Blue (T24 bladder cancer cells): 10.9
SI vs NIH, T24 Blue (T24 bladder cancer cells): 16.8
GI50 (T24 bladder cancer cells; dark, read-out: GI50 T24 Dark): 501 nM
SI vs MC3T3, T24 Dark (T24 bladder cancer cells; dark): 4.2
SI vs NIH, T24 Dark (T24 bladder cancer cells; dark): 4.7
GI50 (PC-3): 710 nM
SI (PC-3) (PC-3): 12.0
GI50 (T24): 950 nM
SI (T24) (T24): 8.9
